Data reported in patent publication US20070093491A1, “Novel condensed n-pyrazinyl-sulphonamides and their use in the treament of chemokine mediated diseases” (priority 2003, published 2007).
Where a name gives a salt, the structure may show the parent alone.

Tested on: not given
Experiment: not given
Details: not given

Row | melting point [°C] | SMILES
1 | 238 to 239 | COc1nc2cccnc2nc1NS(=O)(=O)c1cccc(Cl)c1Cl (as salt: TFA) [Example 7, 2,3-Dichloro-N-(2-methoxypyrido[2,3-b]pyrazin-3-yl)benzenesulfonamide]
2 | 256 to 257 | COc1nc2cnccc2nc1NS(=O)(=O)c1cccc(Cl)c1Cl [Example 13, 2,3-Dichloro-N-(3-methoxypyrido[3,4-b]pyrazin-2-yl)benzenesulfonamide]

More lines, now with the values behind:

Row | SMILES | melting point [°C]
3 | COc1cc2nc(NS(=O)(=O)c3cccc(Cl)c3Cl)c(OC)nc2cc1OC [Example 9, 2,3-Dichloro-N-(3,6,7-trimethoxyquinoxalin-2-yl)benzenesulfonamide] | 215
4 | COc1nc2cc(Cl)c(Cl)cc2nc1NS(=O)(=O)c1cccc(Cl)c1Cl [Example 10, 2,3-Dichloro-N-(6,7-dichloro-3-methoxyquinoxalin-2-yl)benzenesulfonamide] | 283 to 285
5 | COc1nc2ncc(Br)cc2nc1NS(=O)(=O)c1cccc(Cl)c1Cl [Example 11, N-(7-Bromo-3-methoxypyrido[2,3-b]pyrazin-2-yl)-2,3-dichlorobenzenesulfonamide] | 230 to 231
6 | COc1nc2cc(Br)cnc2nc1NS(=O)(=O)c1cccc(Cl)c1Cl [Example 12, N-(7-bromo-2-methoxypyrido[2,3-b]pyrazin-3-yl)-2,3-dichlorobenzenesulfonamide] | 233 to 234

Molecular target: T1, human recombinant CCR4 receptor (Homo sapiens, UniProt P51679)
T1 construct: host or cells: CHO-K1
T1 sequence (P51679 1-360): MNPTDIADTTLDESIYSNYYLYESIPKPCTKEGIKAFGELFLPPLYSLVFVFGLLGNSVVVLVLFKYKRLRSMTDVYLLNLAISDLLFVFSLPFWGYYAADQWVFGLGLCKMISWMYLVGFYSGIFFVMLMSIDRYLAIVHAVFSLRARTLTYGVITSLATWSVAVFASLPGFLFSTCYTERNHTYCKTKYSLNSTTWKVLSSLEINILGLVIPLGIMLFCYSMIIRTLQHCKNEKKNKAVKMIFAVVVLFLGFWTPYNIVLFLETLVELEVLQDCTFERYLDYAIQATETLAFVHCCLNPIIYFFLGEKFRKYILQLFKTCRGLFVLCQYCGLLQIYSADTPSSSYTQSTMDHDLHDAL
Experiment: FMAT whole cell binding assay (FB-MDC binding to CHO-K1 cells expressing CCR4)
Details: inhibition of 2.8 nM FB-MDC binding to CHO-K1 cells stably expressing human recombinant CCR4; two hours incubation at room temperature; FMAT8100 reader
Experimental: FMAT Whole cell Binding Assay
CHO-K1 cells stably expressing the human recombinant CCR4 receptor (Euroscreen; Brussels, Belgium) were cultured in NUT.MIX.F—12(HAM) medium with glutamax-1, containing 10% (v/v) foetal bovine serum and 400 μg ml^−1 geneticin.
Cells were harvested at approximately 70% confluence by treatment with a cell dissociation buffer, and seeded at 5×10^3 cells/100 μl culture medium into wells of a black Costar clear-bottomed 96-well microtitre plates. Plates were incubated overnight at 37° C. in 5% CO2 and used the following day.
Before use, the cell plates were washed twice with 100 μl Hanks balanced salt solution (HBSS). To each well was then added 65 μl of HBSS, 10 μL of 10% DMSO in HBSS±test compound and then 25 μL of 2.8 nM FB-MDC (Applied Biosystems). This fluorescent probe was prepared from a 10 μM stock in 0.08% (v/v) TFA/16% (v/v) acetonitrile, diluted into HBSS.
After two hours incubation in the dark at room temperature, the plates were analysed in an FMAT8100 reader (Applied Biosystems) to measure fluorescence that was associated with binding of FB-MDC to the cells. Compound activity was determined as an pIC50 [log(concentration of compound that results in 50% inhibition)], comparing fluorescence in control and background wells.

Row | IC50 [µM] | SMILES
7 | 1.58 | COc1nc2ccccc2nc1NS(=O)(=O)c1cccc(Cl)c1Cl [Example 1, 2,3-Dichloro-N-(3-methoxyquinoxalin-2-yl)-benzenesulfonamide]
8 | 0.398 | COc1nc2ccccc2nc1NS(=O)(=O)c1ccc(Cl)s1 [Example 3, 5-Chloro-N-(3-methoxyquinoxalin-2-yl)thiophene-2-sulfonamide]
9 | 2 | O=S(=O)(Nc1nc2ccccc2nc1OCc1ccco1)c1cccs1 [Example 5, N-[3-(2-Furylmethoxy)quinoxalin-2-yl]thiophene-2-sulfonamide]
